Test results taken from patent US20100249093A1, “Substituted Heteroarylpiperidine Derivatives As Melanocortin-4 Receptor Modulators” (SANTHERA PHARMACEUTICALS (SCHWEIZ) AG, priority 2007, published 2010).

Columns and labels:
[1] = target: T1, human melanocortin-4 receptor (MC-4R) (Homo sapiens, UniProt P32245); experiment: Membrane binding assay: competition with fluorescence labeled NDP-alpha-MSH, fluorescence polarization; settings: HEK293 cell membrane preparations expressing human MC-4R, read-out: hMC-4R binding assay IC50
T1 construct: expressed in transfected cells; host or cells: HEK293
T1 sequence (P32245 whole entry): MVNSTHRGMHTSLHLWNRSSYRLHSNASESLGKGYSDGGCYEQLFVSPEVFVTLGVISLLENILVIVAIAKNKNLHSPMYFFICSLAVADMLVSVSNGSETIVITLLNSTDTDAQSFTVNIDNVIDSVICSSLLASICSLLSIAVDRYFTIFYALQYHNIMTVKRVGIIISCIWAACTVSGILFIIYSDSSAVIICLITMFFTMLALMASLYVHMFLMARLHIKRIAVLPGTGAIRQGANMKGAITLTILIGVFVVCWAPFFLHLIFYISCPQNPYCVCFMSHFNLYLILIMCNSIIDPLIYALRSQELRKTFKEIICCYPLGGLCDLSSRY

[2] = target: T1, human melanocortin-4 receptor (MC-4R); experiment: Functional assay: agonistic activity, cAMP production in membrane preparations compared with NDP-alpha-MSH, fluorescence polarization; assay type: biochemical; settings: for Emax: cAMP produced compared to stimulation with NDP-alpha-MSH, read-out: % activation functional assay; for EC50: cAMP production, membrane preparations from HEK293 cells expressing human MC-4R, read-out: hMC-4R functional assay EC50

| Compound | IC50 [1] | Emax [2] | EC50 [2] |
| --- | --- | --- | --- |
| CC[C@H](COc1cc(F)cnc1C1CCN(C(=O)[C@@H](Cc2ccc(Cl)cc2Cl)NC(=O)N2CCCC2)CC1)N(C)C [Example 60] | ≤ 100 nM | -12% | – |
| CC[C@H](COc1nc(C)ncc1C1CCN(C(=O)[C@@H](Cc2ccc(Cl)cc2Cl)NC(=O)N2CCCC2)CC1)N(C)C [Example 64] | ≤ 100 nM | 13% | – |
| Cc1ccc(C2CCN(C(=O)[C@@H](Cc3ccc(Cl)cc3F)NC(=O)N3CCCC3)CC2)c(N2CCN(C)CC2)n1 [Example 65] | ≤ 100 nM | 0% | – |
| Cc1ccc(C2CCN(C(=O)[C@@H](Cc3ccc(F)cc3Cl)NC(=O)N3CCCC3)CC2)c(N2CCN(C)CC2)n1 [Example 66] | 100 to 1000 nM | 0% | – |
| Cc1ccc(C2CCN(C(=O)[C@@H](Cc3ccc(F)cc3F)NC(=O)N3CCCC3)CC2)c(N2CCN(C)CC2)n1 [Example 67] | > 1000 nM | 33% | > 1000 nM |
| CC[C@H](COc1cc(Cl)cnc1C1CCN(C(=O)[C@@H](Cc2ccc(C)cc2C)NC(=O)N2CCCC2)CC1)N1CCCC1 [Example 71] | ≤ 100 nM | -4% | – |
| CC[C@H](COc1cc(Cl)cnc1C1CCN(C(=O)[C@@H](Cc2ccc(C)cc2C)NC(=O)N2CCCC2)CC1)N(C)C [Example 73] | ≤ 100 nM | -15% | – |
| CC[C@H](COc1cc(Cl)cnc1C1CCN(C(=O)[C@@H](Cc2ccc(C)cc2C)NC(=O)N2CC(O)C2)CC1)N(C)C [Example 74] | ≤ 100 nM | -5% | – |
| CC[C@H](COc1cc(F)cnc1C1CCN(C(=O)[C@@H](Cc2ccc(Cl)cc2Cl)NC(=O)N2CC(O)C2)CC1)N(C)C [Example 75] | ≤ 100 nM | -1% | – |
| CC[C@H](COc1cccnc1C1CCN(C(=O)[C@@H](Cc2ccc(Cl)cc2Cl)NC(=O)N(C)CC)CC1)N1CCCC1 [Example 79] | ≤ 100 nM | 0% | – |
| CC[C@H](COc1cccnc1C1CCN(C(=O)[C@@H](Cc2ccc(Cl)cc2Cl)NC(=O)N2CC[C@@H](O)C2)CC1)N1CCCC1 [Example 80] | ≤ 100 nM | 0% | – |
| CC[C@H](COc1cccnc1C1CCN(C(=O)[C@@H](Cc2ccc(Cl)cc2Cl)NC(=O)N2CCC(F)CC2)CC1)N1CCCC1 [Example 82] | ≤ 100 nM | 0% | – |
| CC[C@H](COc1cccnc1C1CCN(C(=O)[C@@H](Cc2ccc(Cl)cc2Cl)NC(=O)N2CCC(F)(F)CC2)CC1)N1CCCC1 [Example 83] | ≤ 100 nM | 0% | – |
| CC[C@H](COc1cccnc1C1CCN(C(=O)[C@@H](Cc2ccc(Cl)cc2Cl)NC(=O)N(CCOC)CCOC)CC1)N1CCCC1 [Example 85] | ≤ 100 nM | 0% | – |
| CC[C@H](COc1cccnc1C1CCN(C(=O)[C@@H](Cc2ccc(Cl)cc2Cl)NC(=O)N(C)CCOC)CC1)N1CCCC1 [Example 87] | ≤ 100 nM | 0% | – |
| CC[C@H](COc1cccnc1C1CCN(C(=O)[C@@H](Cc2ccc(Cl)cc2Cl)NC(=O)N2CCSC2)CC1)N1CCCC1 [Example 88] | ≤ 100 nM | 0% | – |
| CC[C@H](COc1cccnc1C1CCN(C(=O)[C@@H](Cc2ccc(Cl)cc2Cl)NC(=O)N2CC[C@H](O)C2)CC1)N1CCCC1 [Example 89] | ≤ 100 nM | 0% | – |
| CC[C@H](COc1cccnc1C1CCN(C(=O)[C@@H](Cc2ccc(Cl)cc2Cl)NC(=O)N2CCOCC2)CC1)N1CCCC1 [Example 91] | ≤ 100 nM | 0% | – |
| CC[C@H](COc1cccnc1C1CCN(C(=O)[C@@H](Cc2ccc(Cl)cc2Cl)NC(=O)N2CCOC[C@@H]2C)CC1)N1CCCC1 [Example 92] | ≤ 100 nM | 0% | – |
| CC[C@H](COc1cccnc1C1CCN(C(=O)[C@@H](Cc2ccc(Cl)cc2Cl)NC(=O)N2C[C@@H](C)O[C@@H](C)C2)CC1)N1CCCC1 [Example 93] | ≤ 100 nM | 0% | – |
| CC[C@H](COc1cccnc1C1CCN(C(=O)[C@@H](Cc2ccc(Cl)cc2Cl)NC(=O)N2CCCO2)CC1)N1CCCC1 [Example 94] | ≤ 100 nM | 0% | – |
| CC[C@H](COc1cccnc1C1CCN(C(=O)[C@@H](Cc2ccc(Cl)cc2Cl)NC(=O)N2CCC=N2)CC1)N1CCCC1 [Example 95] | ≤ 100 nM | 0% | – |
| CC[C@H](COc1cccnc1C1CCN(C(=O)[C@@H](Cc2ccc(Cl)cc2Cl)NC(=O)N2C[C@H]3C[C@H]3C2)CC1)N1CCCC1 [Example 97] | ≤ 100 nM | 8% | – |
| CC[C@H](COc1cccnc1C1CCN(C(=O)[C@@H](Cc2ccc(Cl)cc2Cl)NC(=O)N2CC(OC)C2)CC1)N1CCCC1 [Example 98] | ≤ 100 nM | 13% | – |
| CC[C@H](COc1cccnc1C1CCN(C(=O)[C@@H](Cc2ccc(Cl)cc2Cl)NC(=O)N(C)CC)CC1)N(C)C [Example 101] | ≤ 100 nM | 5% | – |
| CC[C@H](COc1cccnc1C1CCN(C(=O)[C@@H](Cc2ccc(Cl)cc2Cl)NC(=O)N2CC(O)C2)CC1)N(C)C [Example 102] | ≤ 100 nM | -1% | – |
| CC[C@H](COc1cccnc1C1CCN(C(=O)[C@@H](Cc2ccc(Cl)cc2Cl)NC(=O)N2CCC[C@@H]2CO)CC1)N(C)C [Example 107] | ≤ 100 nM | -2% | – |
| CC[C@H](COc1cccnc1C1CCN(C(=O)[C@@H](Cc2ccc(Cl)cc2Cl)NC(=O)N2CC[C@H](OC)C2)CC1)N(C)C [Example 109] | ≤ 100 nM | -11% | – |
| CC[C@H](COc1cccnc1C1CCN(C(=O)[C@@H](Cc2ccc(Cl)cc2Cl)NC(=O)N2CCC(C)(O)C2)CC1)N(C)C (stereo partly shown) [Example 110] | ≤ 100 nM | 0% | – |

Second part, the compound after the results:

| IC50 [1] | Emax [2] | EC50 [2] | Compound |
| --- | --- | --- | --- |
| ≤ 100 nM | 5% | – | CN(C)[C@@H]1CCC[C@@H]1Oc1cccnc1C1CCN(C(=O)[C@@H](Cc2ccc(Cl)cc2Cl)NC(=O)N2CCCC2)CC1 [Example 57] |
| 100 to 1000 nM | 4% | – | CN(C)C[C@@H](Oc1cccnc1C1CCN(C(=O)[C@@H](Cc2ccc(Cl)cc2Cl)NC(=O)N2CCCC2)CC1)C(F)(F)F [Example 58] |
| ≤ 100 nM | -1% | – | CN1CCN(Cc2cc(F)cnc2C2CCN(C(=O)[C@@H](Cc3ccc(Cl)cc3Cl)NC(=O)N3CCCC3)CC2)CC1 [Example 59] |
| ≤ 100 nM | 1% | – | CC[C@@H](CN(C)C)Oc1cc(F)cnc1C1CCN(C(=O)[C@@H](Cc2ccc(Cl)cc2Cl)NC(=O)N2CCCC2)CC1 [Example 61] |
| ≤ 100 nM | -10% | – | C[C@@H](CCN(C)C)Oc1cccnc1C1CCN(C(=O)[C@@H](Cc2ccc(Cl)cc2Cl)NC(=O)N2CCCC2)CC1 [Example 62] |
| ≤ 100 nM | 0% | – | CC[C@@H](CN1CCCC1)Oc1nccnc1C1CCN(C(=O)[C@@H](Cc2ccc(Cl)cc2Cl)NC(=O)N2CCCC2)CC1 [Example 63] |
| ≤ 100 nM | -2% | – | CC[C@H](COc1cccnc1C1CCN(C(=O)[C@@H](Cc2ccc(C)cc2C)NC(=O)N2CCCC2)CC1)N1CCCC1 [Example 70] |
| ≤ 100 nM | 0% | – | CC[C@H](COc1cccnc1C1CCN(C(=O)[C@@H](Cc2ccc(Cl)cc2Cl)NC(=O)N2CCC2)CC1)N1CCCC1 [Example 76] |
| ≤ 100 nM | 0% | – | CC[C@H](COc1cccnc1C1CCN(C(=O)[C@@H](Cc2ccc(Cl)cc2Cl)NC(=O)N(C)C)CC1)N1CCCC1 [Example 77] |
| ≤ 100 nM | 0% | – | CC[C@H](COc1cccnc1C1CCN(C(=O)[C@@H](Cc2ccc(Cl)cc2Cl)NC(=O)N(CC)CC)CC1)N1CCCC1 [Example 78] |
| ≤ 100 nM | 0% | – | CC[C@H](COc1cccnc1C1CCN(C(=O)[C@@H](Cc2ccc(Cl)cc2Cl)NC(=O)N2CC[C@@H](F)C2)CC1)N1CCCC1 [Example 81] |
| ≤ 100 nM | 0% | – | CC[C@H](COc1cccnc1C1CCN(C(=O)[C@@H](Cc2ccc(Cl)cc2Cl)NC(=O)N2CC(O)C2)CC1)N1CCCC1 [Example 84] |
| ≤ 100 nM | 0% | – | CC[C@H](COc1cccnc1C1CCN(C(=O)[C@@H](Cc2ccc(Cl)cc2Cl)NC(=O)N(C)CCO)CC1)N1CCCC1 [Example 86] |
| ≤ 100 nM | 0% | – | CC[C@H](COc1cccnc1C1CCN(C(=O)[C@@H](Cc2ccc(Cl)cc2Cl)NC(=O)N2CC[C@H](F)C2)CC1)N1CCCC1 [Example 90] |
| ≤ 100 nM | 0% | – | CC[C@H](COc1cccnc1C1CCN(C(=O)[C@@H](Cc2ccc(Cl)cc2Cl)NC(=O)N2CCC(O)CC2)CC1)N1CCCC1 [Example 96] |
| ≤ 100 nM | 0% | – | CC[C@H](COc1cccnc1C1CCN(C(=O)[C@@H](Cc2ccc(Cl)cc2Cl)NC(=O)N2CC(C)(O)C2)CC1)N1CCCC1 [Example 99] |
| ≤ 100 nM | -7% | – | CC[C@H](COc1cccnc1C1CCN(C(=O)[C@@H](Cc2ccc(Cl)cc2Cl)NC(=O)N2CC(OC(C)=O)C2)CC1)N1CCCC1 [Example 100] |
| ≤ 100 nM | -9% | ≤ 100 nM | CC[C@H](COc1cccnc1C1CCN(C(=O)[C@@H](Cc2ccc(Cl)cc2Cl)NC(=O)N2CC[C@H](O)C2)CC1)N(C)C [Example 103] |
| ≤ 100 nM | -3% | – | CC[C@H](COc1cccnc1C1CCN(C(=O)[C@@H](Cc2ccc(Cl)cc2Cl)NC(=O)N2CCC[C@H](O)C2)CC1)N(C)C [Example 105] |
| ≤ 100 nM | -1% | – | CC[C@H](COc1cccnc1C1CCN(C(=O)[C@@H](Cc2ccc(Cl)cc2Cl)NC(=O)N2CCC[C@H]2CO)CC1)N(C)C [Example 106] |
| ≤ 100 nM | 0% | – | CC[C@H](COc1cccnc1C1CCN(C(=O)[C@@H](Cc2ccc(Cl)cc2Cl)NC(=O)N2CC[C@@H](OC)C2)CC1)N(C)C [Example 108] |
| ≤ 100 nM | -23% | – | CC[C@H](COc1cccnc1C1CCN(C(=O)[C@@H](Cc2ccc(Cl)cc2Cl)NC(=O)N(C)CC(C)(C)O)CC1)N(C)C [Example 111] |
| ≤ 100 nM | -8% | – | CC[C@H](COc1cccnc1C1CCN(C(=O)[C@@H](Cc2ccc(Cl)cc2Cl)NC(=O)N2CCC(C)(O)CC2)CC1)N(C)C [Example 112] |
